According to PubChem BioAssay AID248 (DTP/NCI, 2004):
Where “and” joins values, the source holds several entries; their conditions need not be identical. Identical values can stand only once. Inconclusive results and toxic doses are left out. Cut-off read from the data, not from the text of the source: active = T/C of 150% or more; inactive = T/C below 125%.

Test system: L1210 leukemia ip in BDF1 mice, survival T/C
Experiment: NCI In Vivo Anticancer Drug Screen. Data for tumor model L1210 Leukemia (intraperitoneal) in B6D2F1 (BDF1) mice
Settings: endpoint: mean survival time, higher = longer survival
Procedure, shortened: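 Transplanted-tumor mice were given test agent; controls received vehicle only. Survival readings from the two groups were divided (treated over control).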

[1] = dose: 50.0 mg/kg/injection, schedule: Q01DX001 (ip), vehicle: carboxymethylcellulose (CMC)
[2] = dose: 100.0 mg/kg/injection, schedule: Q01DX001 (ip), vehicle: carboxymethylcellulose (CMC)
[3] = dose: 200.0 mg/kg/injection, schedule: Q01DX001 (ip), vehicle: carboxymethylcellulose (CMC)
[4] = dose: 400.0 mg/kg/injection, schedule: Q01DX001 (ip), vehicle: carboxymethylcellulose (CMC)
[5] = dose: 100.0 mg/kg/injection, schedule: Q04DX002 (ip), vehicle: Klucel (hydroxypropylcellulose) (HPC)
[6] = dose: 100.0 mg/kg/injection, schedule: Q01DX001 (ip), vehicle: Klucel (hydroxypropylcellulose) (HPC)
[7] = dose: 200.0 mg/kg/injection, schedule: Q01DX001 (ip), vehicle: Klucel (hydroxypropylcellulose) (HPC)
[8] = dose: 400.0 mg/kg/injection, schedule: Q01DX001 (ip), vehicle: Klucel (hydroxypropylcellulose) (HPC)
[9] = dose: 200.0 mg/kg/injection, schedule: Q04DX002 (ip), vehicle: Klucel (hydroxypropylcellulose) (HPC)
[10] = dose: 400.0 mg/kg/injection, schedule: Q04DX002 (ip), vehicle: Klucel (hydroxypropylcellulose) (HPC)
[11] = dose: 100.0 mg/kg/injection, schedule: Q04DX003 (ip), vehicle: acetone
[12] = dose: 200.0 mg/kg/injection, schedule: Q04DX003 (ip), vehicle: acetone
[13] = dose: 400.0 mg/kg/injection, schedule: Q04DX003 (ip), vehicle: acetone

Measured: T/C

COc1ccc(CN2CCCN(Cc3ccc(OC)cc3OC)C2c2ccc(N(CCCl)CCCl)cc2)c(OC)c1
inactive: [1] 106 % of control | [2] 101 % of control | [3] 115 % of control | [4] 106 % of control

C1CCC2C(C1)CCCC2CC1CCCC2CCCCC21 (stereo not given)
inactive: dose: 75.0 mg/kg/injection, schedule: Q01DX001 (ip), vehicle: acetone 100 % of control | dose: 150.0 mg/kg/injection, schedule: Q01DX001 (ip), vehicle: acetone 106 % of control | dose: 300.0 mg/kg/injection, schedule: Q01DX001 (ip), vehicle: acetone 100 % of control

c1cc(C2=NCCN2)ccc1C1=NCCN1
inactive: dose: 15.0 mg/kg/injection, schedule: Q01DX Z (ip), vehicle: saline 104 % of control | dose: 30.0 mg/kg/injection, schedule: Q01DX Z (ip), vehicle: saline 102 % of control | dose: 60.0 mg/kg/injection, schedule: Q01DX Z (ip), vehicle: saline 106 % of control | dose: 120.0 mg/kg/injection, schedule: Q01DX Z (ip), vehicle: saline 101 % of control

Cc1nonc1C(=O)NN
inactive: dose: 25.0 mg/kg/injection, schedule: Q04DX002 (ip), vehicle: Klucel (hydroxypropylcellulose) (HPC) 93 % of control | dose: 50.0 mg/kg/injection, schedule: Q04DX002 (ip), vehicle: Klucel (hydroxypropylcellulose) (HPC) 110 % of control | [5] 93 % of control and 101 % of control

CCOC(=O)C1=NNC(C(C)=O)(C(=O)OCC)C1CC (stereo not given)
inactive: dose: 100.0 mg/kg/injection, schedule: Q01DX009 (ip), vehicle: Klucel (hydroxypropylcellulose) (HPC) 102 % of control | dose: 200.0 mg/kg/injection, schedule: Q01DX009 (ip), vehicle: Klucel (hydroxypropylcellulose) (HPC) 95 % of control | dose: 400.0 mg/kg/injection, schedule: Q01DX009 (ip), vehicle: Klucel (hydroxypropylcellulose) (HPC) 96 % of control

NC(=O)/C=C/NC(=O)/C=N\O
inactive: dose: 12.5 mg/kg/injection, schedule: Q01DX Z (ip), vehicle: saline 97 % of control and 89 % of control | dose: 25.0 mg/kg/injection, schedule: Q01DX Z (ip), vehicle: saline 92 % of control and 93 % of control | dose: 50.0 mg/kg/injection, schedule: Q01DX Z (ip), vehicle: saline 96 % of control and 97 % of control | [2] 102 % of control | dose: 100.0 mg/kg/injection, schedule: Q01DX Z (ip), vehicle: saline 96 % of control and 100 % of control | [3] 96 % of control | dose: 200.0 mg/kg/injection, schedule: Q01DX Z (ip), vehicle: saline 97 % of control and 89 % of control | [4] 91 % of control

CC(C)(C)C1=CC(=O)C(Br)=C(N2C3C4CCC(C4)C32)C1=O (stereo not given)
inactive: [6] 110 % of control | [7] 96 % of control | [8] 94 % of control

CCCCC(=O)N/N=C\c1ccc(C(=O)O)cc1
inactive: [2] 96 % of control | [3] 100 % of control | [4] 110 % of control

COc1ccccc1OS(=O)(=O)c1ccc(COc2ccc([N+](=O)[O-])cc2Cl)cc1
inactive: [6] 93 % of control | [7] 98 % of control | [8] 96 % of control

CCOc1ccccc1/C=C1N=C(/C=C/c2ccccc2)OC\1=O
inactive: dose: 100.0 mg/kg/injection, schedule: Q04DX002 (ip), vehicle: saline with Tween-80 92 % of control | dose: 200.0 mg/kg/injection, schedule: Q04DX002 (ip), vehicle: saline with Tween-80 89 % of control | dose: 400.0 mg/kg/injection, schedule: Q04DX002 (ip), vehicle: saline with Tween-80 97 % of control

Nc1cc2c3c(cccc3c1Br)C(=O)NC2=O
inactive: [5] 121 % of control | [9] 96 % of control | [10] 107 % of control

CSc1nc(Cl)nc(SC)n1
inactive: dose: 100.0 mg/kg/injection, schedule: Q04DX003 (ip), vehicle: Klucel (hydroxypropylcellulose) (HPC) 96 % of control | dose: 200.0 mg/kg/injection, schedule: Q04DX003 (ip), vehicle: Klucel (hydroxypropylcellulose) (HPC) 96 % of control | dose: 400.0 mg/kg/injection, schedule: Q04DX003 (ip), vehicle: Klucel (hydroxypropylcellulose) (HPC) 96 % of control

COC(=O)C(N)=O
inactive: dose: 100.0 mg/kg/injection, schedule: Q01DX001 (ip), vehicle: steriod suspending solution 115 % of control | [5] 100 % of control | dose: 200.0 mg/kg/injection, schedule: Q01DX001 (ip), vehicle: steriod suspending solution 121 % of control | [9] 106 % of control | dose: 400.0 mg/kg/injection, schedule: Q01DX001 (ip), vehicle: steriod suspending solution 106 % of control | [10] 106 % of control

Cc1c2ccccc2cc2cc[n+]3ccccc3c12
inactive: dose: 1.0 mg/kg/injection, schedule: Q01DX015 (ip), vehicle: carboxymethylcellulose (CMC) 102 % of control | dose: 2.0 mg/kg/injection, schedule: Q01DX015 (ip), vehicle: carboxymethylcellulose (CMC) 104 % of control | dose: 4.0 mg/kg/injection, schedule: Q01DX015 (ip), vehicle: carboxymethylcellulose (CMC) 98 % of control | dose: 5.0 mg/kg/injection, schedule: Q01DX001 (ip), vehicle: carboxymethylcellulose (CMC) 101 % of control | dose: 8.0 mg/kg/injection, schedule: Q01DX015 (ip), vehicle: carboxymethylcellulose (CMC) 102 % of control and 119 % of control | dose: 10.0 mg/kg/injection, schedule: Q01DX001 (ip), vehicle: carboxymethylcellulose (CMC) 101 % of control | dose: 16.0 mg/kg/injection, schedule: Q01DX015 (ip), vehicle: carboxymethylcellulose (CMC) 111 % of control | dose: 20.0 mg/kg/injection, schedule: Q01DX001 (ip), vehicle: carboxymethylcellulose (CMC) 110 % of control | dose: 20.0 mg/kg/injection, schedule: Q04DX003 (ip), vehicle: Klucel (hydroxypropylcellulose) (HPC) 110 % of control | dose: 40.0 mg/kg/injection, schedule: Q01DX001 (ip), vehicle: carboxymethylcellulose (CMC) 117 % of control | dose: 40.0 mg/kg/injection, schedule: Q04DX003 (ip), vehicle: Klucel (hydroxypropylcellulose) (HPC) 114 % of control

CC(C)(C)[O][Pb]([c]1ccccc1)([c]1ccccc1)[c]1ccccc1
inactive: dose: 1.56 mg/kg/injection, schedule: Q01DX009 (ip), vehicle: saline with Tween-80 91 % of control

CCCCCCC(=O)/C=C/c1ccc(Cl)cc1Cl
inactive: dose: 100.0 mg/kg/injection, schedule: Q01DX009 (ip), vehicle: acetone 95 % of control | [11] 86 % of control | dose: 200.0 mg/kg/injection, schedule: Q01DX009 (ip), vehicle: acetone 90 % of control | [12] 91 % of control | dose: 400.0 mg/kg/injection, schedule: Q01DX009 (ip), vehicle: acetone 95 % of control | [13] 93 % of control

Clc1ccc2nsnc2c1
inactive: [6] 105 % of control | [7] 114 % of control

Cc1cccc(C)c1N(C=O)N=O
inactive: dose: 100.0 mg/kg/injection, schedule: Q01DX001 (ip), vehicle: saline 110 % of control | dose: 200.0 mg/kg/injection, schedule: Q01DX001 (ip), vehicle: saline 104 % of control

O=C(O)c1ccc(/C=N/Nc2nnc(N/N=C/c3ccc(C(=O)O)cc3)c3ccccc23)cc1
inactive: [1] 113 % of control | [2] 113 % of control | [3] 107 % of control | [4] 104 % of control

CCc1c(C)[nH]c2c1C(=O)CCC2
inactive: dose: 10.0 mg/kg/injection, schedule: Q01DX001 (ip), vehicle: saline 98 % of control | dose: 20.0 mg/kg/injection, schedule: Q01DX001 (ip), vehicle: saline 100 % of control | dose: 40.0 mg/kg/injection, schedule: Q01DX001 (ip), vehicle: saline 105 % of control

COc1cccc(OC)c1CCCl
inactive: dose: 100.0 mg/kg/injection, schedule: Q04DX003 (ip), vehicle: saline 95 % of control | dose: 200.0 mg/kg/injection, schedule: Q04DX003 (ip), vehicle: saline 97 % of control | dose: 400.0 mg/kg/injection, schedule: Q04DX003 (ip), vehicle: saline 110 % of control

O=S(=O)(C1=Cc2cccc3cccc1c23)c1ccccc1
inactive: dose: 100.0 mg/kg/injection, schedule: Q01DX001 (ip), vehicle: acetone 101 % of control | dose: 100.0 mg/kg/injection, schedule: Q01DX009 (ip), vehicle: saline 94 % of control | [11] 105 % of control | dose: 200.0 mg/kg/injection, schedule: Q01DX001 (ip), vehicle: acetone 92 % of control | dose: 200.0 mg/kg/injection, schedule: Q01DX009 (ip), vehicle: saline 96 % of control | [12] 105 % of control | dose: 400.0 mg/kg/injection, schedule: Q01DX001 (ip), vehicle: acetone 93 % of control | dose: 400.0 mg/kg/injection, schedule: Q01DX009 (ip), vehicle: saline 103 % of control | [13] 97 % of control
